Data: PMC6749418, “SAR by Space: Enriching Hit Sets from the Chemical Space” (Molecules, 2019)
Read-outs that look alike come from different tables or passages of the source.

How the values were obtained:
BRD4 = conditions: cited from earlier work
bromodomain 1 of BRD4 = tested on: T1, bromodomain 1 of BRD4; test: Thermal shift assay (TSA) with recombinant, truncated, His-tagged bromodomain 1 of BRD4; format: binding; conditions: 1% DMSO, 4 μM protein; for ΔTm (°C) at 10 μM: compound at 10 μM; for ΔTm (°C) at 20 μM: compound at 20 μM; for ΔTm (°C) at 40 μM: compound at 40 μM
T1 construct: made in house
Protocol: The compounds were synthesized according to the standard protocols for typical parallel synthesis transformations, including amide/sulfonamide coupling, reductive amination, urea synthesis, arylation/alkylation, etc. The synthesis was completed in a three-week period and all the 32 compounds could actually be synthesized. The products obtained were subjected to thermal shift assay (TSA) using recombinant, truncated, His-tagged bromodomain 1 of BRD4 [28] at 40, 20, and 10 μM (Figure 4). The hit selection criteria followed those described in our previous publication:|ΔTm| ≥ |ΔTm,av| + 3|σ(ΔTm)|(1) |ΔTm| ≥ 2|σ(Tm,DMSO)|(2) where ΔTm—thermal shift caused by the compound; ΔTm,av—mean thermal shift value within the plate; σ(ΔTm)—standard deviation of the thermal shift values within the plate; σ(Tm,DMSO)—standard deviation of the melting temperature values obtained for the control samples.
All tested compounds were obtained from Enamine Ltd. (Kyiv, Ukraine). Stock solutions of the tested compounds were prepared in 100% DMSO and were stored at −20 °C until use. The bromodomain 1 of BRD4 was expressed using pNIC28-Bsa4 plasmid vector with an insert representing domain 1 of BRD4 (44–168 AA, sequence entry O60885.1 in UniProtKB Database), N-terminus His6-tag and 16-amino acid linker.
All thermal shift assay (TSA) experiments with BRD4 protein were performed using ViiA™7 real-time PCR System equipped with 384-well heat block (Applied Biosystems, Waltham, MA, USA). General TSA methodology was adopted from the literature and experimentally modified in order to optimize conditions for measuring BRD4 melting temperature shifts upon interaction with small molecules. The optimal buffer composition for the TSA procedure was determined as described previously. Buffer consisting of 50 mM Phosphate-Na, 100 mM NaCl, pH = 7.5 was selected for BRD4 screening in this study. Purified BRD4 protein was pre-mixed with SYPRO Orange dye (Thermo Fischer Scientific, Cat. S6650, 5000x stock, Waltham, MA, USA) to prepare a master mix at 4 μM protein and 6× dye concentrations. Tested compounds were added to the protein-dye master mix at 40, 20, or 10 μM at 1% final DMSO concentration and incubated at 4 °C for 1 h in MicroAmp® optical 384-well reaction plates (ThermoFisher, Cat. 4309849, Waltham, MA, USA) sealed with optical sealing film (ThermalSeal RT2, Excel Scientific, Cat. TS-RT2, Victorville, CA, USA). The volumes of all reaction mixtures were 10 µL ([…]). The reaction plates were then kept at ambient temperature (22–24 °C) for an additional 15 min to ensure protein-compound interactions. Thermal scanning was performed by raising the temperature to 40 °C at 1.6 °C/min without signal detection followed by 40 °C to 90 °C temperature ramp at 0.05 °C/s with constant fluorescence intensity reading at 1-sec intervals using EX470/EM623 nm filter set.
Primary screening of the whole test set of 49 compounds was carried out in singletons. The raw data of dye fluorescence intensity change upon protein melt were exported using the ViiA7 RUO software (Applied Biosystems/Thermo Fischer Scientific). Further data visualization, curve fitting, melting temperature calculations on the raw fluorescence data were performed using custom-made Microsoft Excel scripts. The peak of the first derivative for the fluorescence curve was used to define melting temperature (Tm). Averaged Tm values for the control wells containing only the protein, dye and 1% DMSO were used as a reference point to determine melting temperature shifts (ΔTm).

BRD4 (BD1+BD2) = molecular target: T2, BRD4 (BD1+BD2) (Homo sapiens, UniProt O60885); test: BRD4 (BD1+BD2) TR-FRET assay, IC50 measurement; format: biochemical; conditions: average from three independent experiments
T2 construct: BRD4 (BD1+BD2) TR-FRET assay kit from BPS Bioscience; purchased BPS Bioscience
Protocol: Dose-response curves were built for these compounds, and for 5 of them, IC50 values were determined in TR-FRET assay as an average from three independent experiments (Table 1). Comparing the resulting hit molecules with the corresponding initial queries, one can see considerable structural differences. […] The relatively high FTrees similarity explains why they were not missed in the REAL Space search: The molecules still have very similar pharmacophoric properties in a similar arrangement. […] This is exemplary shown in Figure 7 for compound 20 and its respective query molecule 15. The shift of the nitrogen atom to the β position of the pyridine ring, as well as the different linker length, led to a completely flipped binding mode. It is also important to stress that the starting points of this study which led to the hits (compounds 19–22) had no significant activity against BRD4 in the functional (TR-FRET) assay; they were identified only in the binding assay (TSA).
All TR-FRET assays and IC50 measurements were performed using BRD4 (BD1+BD2) TR-FRET assay kit from BPS Bioscience (www.bpsbioscience.com) following the standard procedure.

[1] = investigational BRD4 inhibitors, Figure 1

SMILES: COc1nnc2ccc(N3CCC(c4ccc(OCCN5CCN(C)C(=O)[C@H]5C)cc4)CC3)nn12 [AZD5153]
- IC50 (BRD4; [1]): 0.005 µM

SMILES: CC1(C)C(=O)Nc2ccc(C(=O)Nc3cc(Cl)c(O)cc3F)cc21 [C00002]
- ΔTm (°C) at 10 μM (bromodomain 1 of BRD4): 0.31 ± 0.05 °C
- ΔTm (°C) at 20 μM (bromodomain 1 of BRD4): 0.39 ± 0.08 °C
- ΔTm (°C) at 40 μM (bromodomain 1 of BRD4): 0.71 ± 0.01 °C
- IC50 (BRD4 (BD1+BD2)): 10.7 µM

SMILES: CC1CC(=O)N(C)c2ccc(NC(=O)NCc3nc(N(C)C)no3)cc21 (stereo not shown) [C00004]
- ΔTm (°C) at 10 μM (bromodomain 1 of BRD4): 0.30 ± 0.10 °C
- ΔTm (°C) at 20 μM (bromodomain 1 of BRD4): 0.72 ± 0.41 °C
- ΔTm (°C) at 40 μM (bromodomain 1 of BRD4): 1.52 ± 0.59 °C
- IC50 (BRD4 (BD1+BD2)): 26.4 µM

SMILES: CC(C)(C)c1nnc2ccc(NCC(C)(C)c3cccnc3)nn12 [C00006]
- ΔTm (°C) at 10 μM (bromodomain 1 of BRD4): 0.34 ± 0.13 °C
- ΔTm (°C) at 20 μM (bromodomain 1 of BRD4): 0.98 ± 0.22 °C
- ΔTm (°C) at 40 μM (bromodomain 1 of BRD4): 1.33 ± 0.17 °C
- IC50 (BRD4 (BD1+BD2)): 44.6 µM

SMILES: CC(C)(CNc1ccc2nnc(C(F)(F)F)n2n1)c1cccnc1 [C00007]
- ΔTm (°C) at 10 μM (bromodomain 1 of BRD4): 0.34 ± 0.19 °C
- ΔTm (°C) at 20 μM (bromodomain 1 of BRD4): 0.78 ± 0.14 °C
- ΔTm (°C) at 40 μM (bromodomain 1 of BRD4): 1.56 ± 0.05 °C
- IC50 (BRD4 (BD1+BD2)): 68.2 µM

SMILES: CCC1Oc2cc(C(C)NC(=O)Cc3c(C)nc4[nH][nH]c(=O)c4c3C)ccc2NC1=O (stereo not shown) [C00009]
- ΔTm (°C) at 10 μM (bromodomain 1 of BRD4): 0.29 ± 0.01 °C
- ΔTm (°C) at 20 μM (bromodomain 1 of BRD4): 0.44 ± 0.06 °C
- ΔTm (°C) at 40 μM (bromodomain 1 of BRD4): 0.53 ± 0.25 °C
- IC50 (BRD4 (BD1+BD2)): 141 µM

SMILES: Cc1noc2c1-c1ccccc1C(c1ccc(Cl)cc1)=N[C@H]2CC(N)=O [CPI-0610]
- IC50 (BRD4; [1]): 0.018 µM

SMILES: O=C1Nc2ccc(NS(=O)(=O)C3CCCCC3)cc2C12CCC2 [compound 31]
- IC50 (BRD4; known BRD4 inhibitors, Figure 6): < 0.15 µM

SMILES: O=C1CCc2cc(NC(=O)Nc3ccc(C(F)(F)F)cc3)ccc2N1 [compound 32]
- inhibition at 10 μM (BRD4; 10 μM, known BRD4 inhibitors, Figure 6): up to 92%

SMILES: CCS(=O)(=O)Nc1ccc(Oc2ccc(F)cc2F)c(-c2cn(C)c(=O)c3[nH]ccc23)c1 [mivebresib, Mivebresib]
- IC50 (BRD4; [1]): 0.001 to 0.002 µM
